In this assay the target is MCH receptor (Homo sapiens, UniProt Q99705). Kind of assay: Receptor binding assay with Radiolabelled MCH Ligand. Details: expressed in transfected cells; host or cells: 293 cells (human kidney, ATCC), transient transfection; crude membranes. Conditions: class by percent of control at 10^-7 M or IC50. An excerpt: In addition to the methods described herein, another means for evaluating a test compound is by determining binding affinities to the MCH receptor. This type of assay generally requires a radiolabelled ligand to the MCH receptor. Absent the use of known ligands for the MCH receptor and radiolabels thereof, compounds of Formula (I) can be labelled with a radioisotope and used in an assay for evaluating the affinity of a test compound to the MCH receptor.
A radiolabelled MCH compound of Formula (I) can be used in a screening assay to identify/evaluate compounds. In general terms, a newly synthesized or identified compound (i.e., test compound) can be evaluated for its ability to reduce binding of the “radiolabelled compound of Formula (I)” to the MCH receptor. Accordingly, the ability to compete with the “radio-labelled compound of Formula (I)” or Radiolabelled MCH Ligand for the binding to the MCH receptor directly correlates to its binding affinity of the test compound to the MCH receptor.
293 cells (human kidney, ATCC), transiently transfected with 10 μg human MCH receptor and 60 μl Lipofectamine (per 15-cm dish), are grown in the dish for 24 hours (75% confluency) with a media change and removed with 10 mL/dish of Hepes-EDTA buffer (20 mM Hepes+10 mM EDTA, pH 7.4). The cells are then centrifuged in a Beckman Coulter centrifuge for 20 minutes, 17,000 rpm (JA-25.50 rotor). Subsequently, the pellet is resuspended in 20 mM Hepes+1 mM EDTA, pH 7.4 and homogenized with a 50-mL Dounce homogenizer and again centrifuged. After removing the supernatant, the pellets can be stored at −80° C., until used in binding assay. When used in the assay, membranes are thawed on ice for 20 minutes and then 10 mL of incubation buffer (20 mM Hepes, 1 mM MgCl2, 100 mM NaCl, pH 7.4) added. The membranes are then vortexed to resuspend the crude membrane pellet and homogenized with a Brinkmann PT-3100 Polytron homogenizer for 15 seconds at setting 6. The concentration of membrane protein is determined using the BRL Bradford protein assay.
For total binding, a total volume of 50 ul of appropriately diluted membranes (diluted in assay buffer containing 50 mM Tris HCl (pH 7.4), 1 mM MgCl2, and 1 mM EDTA; 5-50 ug protein) is added to 96-well polyproylene microtiter plates followed by addition of 100 μl of assay buffer and 50 μl of Radiolabelled MCH Ligand. For nonspecific binding, 50 μl of assay buffer is added instead of 100 μl and an additional 50 μl of 10 uM cold MCH is added before 50 μl of Radiolabelled MCH Ligand is added. Plates are then incubated at room temperature for 60-120 minutes. The binding reaction is terminated by filtering assay plates through a Microplate Devices GF/C Unifilter filtration plate with a Brandell 96-well plate harvester followed by washing with cold 50 mM Tris HCl, pH 7.4 containing 0.9% NaCl. Then, the bottom of the filtration plate are sealed, 50 ul of Optiphase Supermix is added to each well, the top of the plates are sealed, and plates are counted in a Trilux MicroBeta scintillation counter. For compound competition studies, instead of adding 100 μl of assay buffer, 100 μl of appropriately diluted test compound is added to appropriate wells followed by addition of 50 μl of Radiolabelled MCH Ligand.
The test compounds are initially assayed at 1 and 0.1 μM and then at a range of concentrations chosen such that the middle dose would cause about 50% inhibition of a Radiolabelled MCH Ligand binding (i.e., IC50). Specific binding in the absence of test compound (BO) is the difference of total binding (BT) minus non-specific binding (NSB) and similarly specific binding (in the presence of test compound) (B) is the difference of displacement binding (BD) minus non-specific binding (NSB). IC50 is determined from an inhibition response curve, logit-log plot of % B/BO vs. concentration of test compound.
Ki is calculated by the Cheng and Prustoff transformation: […]

Molecules are shown by their SMILES.

Sequence of MCH receptor (Q99705 whole entry): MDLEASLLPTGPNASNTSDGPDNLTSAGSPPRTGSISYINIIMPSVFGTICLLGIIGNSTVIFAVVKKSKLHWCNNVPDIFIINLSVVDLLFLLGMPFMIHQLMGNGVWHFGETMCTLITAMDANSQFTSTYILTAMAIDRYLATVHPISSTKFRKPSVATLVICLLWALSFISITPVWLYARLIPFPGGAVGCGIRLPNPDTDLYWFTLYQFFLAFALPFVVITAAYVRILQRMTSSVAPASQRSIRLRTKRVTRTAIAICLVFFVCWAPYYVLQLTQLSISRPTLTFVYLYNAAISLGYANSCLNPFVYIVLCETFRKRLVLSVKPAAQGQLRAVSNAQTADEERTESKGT

On to `CCOc1ccc(CN[C@H]2CC[C@@H](Nc3cc(N(C)C)nc(C)n3)CC2)cc1` [compound 371], for which the class is 3 (Class 3: The value of percent of control at 10^−7 M was more than 60% or the value of IC50 was more than 200 nM.). For the compound `Cc1nc(N[C@H]2CC[C@@H](NC(=O)C3CC3)CC2)cc(N(C)C)n1` [compound 211], the class was 3 (Class 3: The value of percent of control at 10^−7 M was more than 60% or the value of IC50 was more than 200 nM.). Consider `Cc1nc(N[C@H]2CC[C@@H](NCCOc3ccccc3[N+](=O)[O-])CC2)cc(N(C)C)n1` [compound 385], for which the class is reported as 3 (Class 3: The value of percent of control at 10^−7 M was more than 60% or the value of IC50 was more than 200 nM.). On to `Cc1nc(N[C@H]2CC[C@@H](NCc3cccc([N+](=O)[O-])c3)CC2)cc(N(C)C)n1` [compound 379], for which the class is 3 (Class 3: The value of percent of control at 10^−7 M was more than 60% or the value of IC50 was more than 200 nM.).

As for `Cc1nc(N[C@H]2CC[C@@H](NCc3cccs3)CC2)cc(N(C)C)n1` [compound 388], the class is on record as 3 (Class 3: The value of percent of control at 10^−7 M was more than 60% or the value of IC50 was more than 200 nM.). With `COc1cc(OC)c(NC(=O)N[C@H]2CC[C@@H](Nc3cc(N(C)C)nc(C)n3)CC2)cc1Cl` [compound 426, N-(5-chloro-2,4-dimethoxyphenyl)-N′-(cis-4-{[6-(dimethylamino)-2-methylpyrimidin-4-yl]amino}cyclohexyl)urea], the class is given as 2 (Class 2: The value of percent of control at 10^−7 M was from 40% to 60% or the value of IC50 was from 50 nM to 200 nM.). Consider `Cc1nc(N[C@H]2CC[C@@H](NC(=O)c3ccc(F)c(Cl)c3)CC2)cc(N(C)C)n1` [compound 256, 3-chloro-N-(cis-4-{[6-(dimethylamino)-2-methylpyrimidin-4-yl]amino}cyclohexyl)-4-fluorobenzamide], for which the class is 1 (Class 1: The value of percent of control at 10^−7 M was less than 40% or the value of IC50 was less than 50 nM.). The value for `CCOc1ccccc1NC(=O)N[C@H]1CC[C@@H](Nc2cc(N(C)C)nc(C)n2)CC1` [compound 428] was 3 (Class 3: The value of percent of control at 10^−7 M was more than 60% or the value of IC50 was more than 200 nM.). As to `Cc1cc(C)c(C(=O)C(=O)N[C@H]2CC[C@@H](Nc3cc(N(C)C)nc(C)n3)CC2)c(C)c1` [compound 350], the class is 3 (Class 3: The value of percent of control at 10^−7 M was more than 60% or the value of IC50 was more than 200 nM.). Regarding `Cc1nc(N[C@H]2CC[C@@H](NS(=O)(=O)c3cccc(Br)c3)CC2)cc(N(C)C)n1` [compound 500], the class is listed as 3 (Class 3: The value of percent of control at 10^−7 M was more than 60% or the value of IC50 was more than 200 nM.).

Regarding `Cc1nc(N[C@H]2CC[C@@H](NC(=O)[C@@H]3CCCN3S(=O)(=O)c3ccc(C(C)(C)C)cc3)CC2)cc(N(C)C)n1` (relative stereo) [compound 277], the class is listed as 3 (Class 3: The value of percent of control at 10^−7 M was more than 60% or the value of IC50 was more than 200 nM.).

Consider `Cc1nc(N[C@H]2CC[C@@H](NC(=O)Nc3ccccc3OC(F)(F)F)CC2)cc(N(C)C)n1` [compound 424], for which the class is given as 3 (Class 3: The value of percent of control at 10^−7 M was more than 60% or the value of IC50 was more than 200 nM.). `Cc1nc(N[C@H]2CC[C@@H](NC(=O)c3ccccc3C(=O)c3cc(C(F)(F)F)cc(C(F)(F)F)c3)CC2)cc(N(C)C)n1` [compound 322]: the class is recorded as 3 (Class 3: The value of percent of control at 10^−7 M was more than 60% or the value of IC50 was more than 200 nM.). In the case of `Cc1nc(N[C@H]2CC[C@@H](NS(=O)(=O)c3cc(S(=O)(=O)c4ccccc4)cs3)CC2)cc(N(C)C)n1` [compound 519] it was 3 (Class 3: The value of percent of control at 10^−7 M was more than 60% or the value of IC50 was more than 200 nM.). The value for `Cc1nc(N[C@H]2CC[C@@H](NC(=O)C(=O)c3ccccc3)CC2)cc(N(C)C)n1` [compound 349] was 3 (Class 3: The value of percent of control at 10^−7 M was more than 60% or the value of IC50 was more than 200 nM.); that for `Cc1nc(N[C@H]2CC[C@@H](NC(=O)C(C)c3ccc(N4Cc5ccccc5C4=O)cc3)CC2)cc(N(C)C)n1` (relative stereo) [compound 286] was 3 (Class 3: The value of percent of control at 10^−7 M was more than 60% or the value of IC50 was more than 200 nM.); that for `COc1cc(COC(=O)N[C@H]2CC[C@@H](Nc3cc(N(C)C)nc(C)n3)CC2)c([N+](=O)[O-])cc1OC` [compound 453] was 3 (Class 3: The value of percent of control at 10^−7 M was more than 60% or the value of IC50 was more than 200 nM.). `Cc1ccc(C(=O)CC(Sc2ccc(Cl)cc2)C(=O)N[C@H]2CC[C@@H](Nc3cc(N(C)C)nc(C)n3)CC2)cc1` (relative stereo) [compound 310]: the class is reported as 3 (Class 3: The value of percent of control at 10^−7 M was more than 60% or the value of IC50 was more than 200 nM.).

Take `Cc1nc(N[C@H]2CC[C@@H](NC(=O)c3ccc(C#N)cc3)CC2)cc(N(C)C)n1` [compound 259]: the class is recorded as 3 (Class 3: The value of percent of control at 10^−7 M was more than 60% or the value of IC50 was more than 200 nM.). The value for `Cc1nc(N[C@H]2CC[C@@H](NC(=O)c3cnc4ccccc4n3)CC2)cc(N(C)C)n1` [compound 240] was 3 (Class 3: The value of percent of control at 10^−7 M was more than 60% or the value of IC50 was more than 200 nM.); that for `Cc1nc(N[C@H]2CC[C@@H](NCCc3ccc(Cl)cc3)CC2)cc(N(C)C)n1` [compound 364] was 3 (Class 3: The value of percent of control at 10^−7 M was more than 60% or the value of IC50 was more than 200 nM.); that for `Cc1nc(N[C@H]2CC[C@@H](NCc3cc(C(C)(C)C)nn3Cc3ccccc3)CC2)cc(N(C)C)n1` [compound 407] was 3 (Class 3: The value of percent of control at 10^−7 M was more than 60% or the value of IC50 was more than 200 nM.).

For `Cc1nc(N[C@H]2CC[C@@H](NC(=O)c3ccccc3C(=O)c3sc4ccccc4c3C)CC2)cc(N(C)C)n1` [compound 323], the class is 3 (Class 3: The value of percent of control at 10^−7 M was more than 60% or the value of IC50 was more than 200 nM.). `CC(=O)OC(C(=O)N[C@H]1CC[C@@H](Nc2cc(N(C)C)nc(C)n2)CC1)c1ccccc1` (relative stereo) [compound 197]: the class is listed as 3 (Class 3: The value of percent of control at 10^−7 M was more than 60% or the value of IC50 was more than 200 nM.). For `Cc1nc(N[C@H]2CC[C@@H](NC(=O)c3cc(C(C)(C)C)nn3Cc3ccc(Cl)cc3Cl)CC2)cc(N(C)C)n1` [compound 270], the class was 3 (Class 3: The value of percent of control at 10^−7 M was more than 60% or the value of IC50 was more than 200 nM.). In the case of `CC(=O)c1ccc(S(=O)(=O)N[C@H]2CC[C@@H](Nc3cc(N(C)C)nc(C)n3)CC2)cc1` [compound 484] it was 3 (Class 3: The value of percent of control at 10^−7 M was more than 60% or the value of IC50 was more than 200 nM.); in that of `Cc1nc(N[C@H]2CC[C@@H](NC(=O)CN3C(=O)c4ccccc4C3=O)CC2)cc(N(C)C)n1` [compound 274], 3 (Class 3: The value of percent of control at 10^−7 M was more than 60% or the value of IC50 was more than 200 nM.); in that of `Cc1nc(N[C@H]2CC[C@@H](NC(=O)CSc3ccccc3)CC2)cc(N(C)C)n1` [compound 246], 3 (Class 3: The value of percent of control at 10^−7 M was more than 60% or the value of IC50 was more than 200 nM.).

The values above are taken from US20090036448A1, “PYRIMIDINE DERIVATIVES AND METHODS OF TREATMENT RELATED TO THE USE THEREOF” (TAISHO PHARMECUTICAL CO., LTD., priority 2004, published 2009).
